In US6673781B1, “Tricyclic compounds having sPLA2-inhibitory activities” (Shionogi & Co., Ltd., priority 1999, dated 2004):

Columns and labels:
[1] = target: T1, recombinant human secretory phospholipase A2 (Homo sapiens, UniProt P14555); test: Inhibition test of human secretory phospholipase A2 (chromogenic assay, 96 well microtiterplate); format: biochemical; conditions: sPLA2 50 ng/well, 40° C., 30 minutes, OD 405 nm, substrate 1,2-bis(heptanoylthio)-1,2-dideoxy-sn-glycero-3-phospholylcholine
T1 sequence (P14555 21-144): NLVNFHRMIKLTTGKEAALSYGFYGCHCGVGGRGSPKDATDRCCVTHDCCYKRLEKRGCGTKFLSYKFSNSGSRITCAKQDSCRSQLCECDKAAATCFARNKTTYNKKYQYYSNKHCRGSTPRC
Text: Inhibition Test of Human Secretory Phospholipase A2 Analytical Experiment
In order to identify and evaluate an inhibitor of recombinant human secretory phospholipase A2, the following chromogenic assay is utilized. The assay herein has been applied for high volume screening wherein 96 well microtiterplate is used. A general explanation for such assay is described in “Analysis of Human Synovial Fluid Phospholipase A2 on Short Chain Phosphatidylcholine-Mixed Micelles: Development of a Spectrophotometric Assay Suitable for a Micortiterplate Reader” (Analytical Biochemistry, 204, pp 190-197, 1992 by Laure. J. Reynolds. Lori L. Hughes and Edward A. Dennis: the disclosure of which is incorporated herein for reference.
Bovine Serum Albumin (fatty acid free) (1 g/L) (Sigma A-7030)
pH 7.5 (adjusted with NaOH)
pH 4.5 (adjusted with acetic acid)
1 mg of sPLA2 is dissolved in 1 ml of an enzyme buffer. Thereafter, the solution is maintained at 4° C.
In the assay, 5 μl of the solution is diluted with 1995 μl of the reaction buffer to be used.
198 mg of 5,5′-dithiobis-2-[…] (manufactured by Wako Pure Chemicals) is dissolved in 100 ml of H2O
100 mg of racemic 1,2-bis(heptanoylthio)-1,2-dideoxy-sn-glycero-3-phospholylcholine is dissolved in 1 ml of chloroform.
624.9 mg of Triton-X 100 is dissolved in 100 ml of the reaction buffer.
Enzyme Reaction: for 1 plate of Microtiterplate
1) 0.106 ml of the substrate solution is put in a centrifugal tube, and nitrogen gas is jetted to remove the solvent. 0.54 ml of Triton-X 100 is added thereto, the mixture is stirred, thereafter it is sonified in a bath type sonification to dissolve. To the resulting product are added 17.8 ml of the reaction buffer and 0.46 ml of DTNB, and 0.18 ml each of the admixture is poured to wells of the 96 well microtiterplate.
2) 10 μl of a test compound (or solvent blank) are added in accordance with alignment of plates which has been previously set.
3) Incubation is effected at 40° C. for 15 minutes.
4) 20 μl of an enzyme solution (sPLA2) which has been previously diluted (50 ng/well) are added to start reaction (40° C., 30 minutes).
5) Changes in absorbancy for 30 minutes are measured by a plate reader, and inhibition activity was calculated (OD: 405 nm).
6) IC50 was determined by plotting log concentration with respect to inhibition values within 10% to 90% inhibiting range.

| SMILES | IC50 [1] | melting point |
| --- | --- | --- |
| NC(=O)C1=CCCc2c1c1c(OCC(=O)O)cccn1c2Cc1ccccc1 [Compound I-2] | 8 nM | – |
| NC(=O)C1CCCc2c1c1c(OCC(=O)O)cccn1c2Cc1ccccc1 (stereo not drawn) [Compound I-3] | 21 nM | – |
| CCOC(=O)CCCOc1ccn2c(Cc3ccccc3)c3c(c2c1)C(C(N)=O)=CCC3 [Compound I-4] | 175 nM | – |
| NC(=O)C1=CCCc2c1c1cc(OCCCC(=O)O)ccn1c2Cc1ccccc1 [Compound I-5] | 49 nM | – |
| COC(=O)COc1cccn2c(Cc3ccccc3)c3c(c12)C(C(N)=O)OCCC3 (stereo not drawn) [Compound I-6] | 7500 nM | 182 to 183 °C |
| NC(=O)C1OCCCc2c1c1c(OCC(=O)O)cccn1c2Cc1ccccc1 (stereo not drawn) [Compound I-7] | 269 nM | 175 to 179 °C |
| COC(=O)COc1cccn2c(Cc3ccccc3)c3c(c12)C(C(N)=O)=NCC3 [Compound I-8] | 21100 nM | – |
| NC(=O)C1=NCCc2c1c1c(OCC(=O)O)cccn1c2Cc1ccccc1 [Compound I-9] | 1590 nM | 196 to 198 °C |
| NC(=O)c1nncc2c(Cc3ccccc3)n3cccc(OCC(=O)O)c3c12 [Compound I-10] | 39900 nM | – |
| NC(=O)C1=NOCc2c1c1c(OCC(=O)O)cccn1c2Cc1ccccc1 [Compound I-11] | 31 nM | – |

Now from value to molecule:

| IC50 [1] | melting point | SMILES |
| --- | --- | --- |
| 125 nM | 196 to 198 °C | COC(=O)COc1cccn2c(Cc3ccc(-c4ccccc4)cc3)c3c(c12)C(C(N)=O)=CCC3 [Compound I-12] |
| 10 nM | 224 to 227 °C | NC(=O)C1=CCCc2c1c1c(OCC(=O)O)cccn1c2Cc1ccc(-c2ccccc2)cc1 [Compound I-13] |
| 725 nM | 218 to 220 °C | COC(=O)COc1cccn2c(Cc3ccccc3)c3c(c12)C(C(N)=O)OCC3 (stereo not drawn) [Compound I-14] |
| 35 nM | 242 to 243 °C (dec.) | NC(=O)C1OCCc2c1c1c(OCC(=O)O)cccn1c2Cc1ccccc1 (stereo not drawn) [Compound I-15] |
